Counter-ions that a name gives are not always drawn.

Results on 3 compounds are retold here after patent publication EP4667482A1, “SALT OF DIPEPTIDE COMPOUND, PREPARATION METHOD THEREFOR, AND USE THEREOF” (Zhejiang Huahai Pharmaceutical Co., Ltd., priority 2023, dated 2024).

Common to all, as to assay type: physicochemical
Data set [1] can be described thus: Moisture adsorption / hygroscopicity (DVS). The following applies: for Hygroscopicity: result in words.
Data set [2] can be described thus: Stability at room temperature (10 days).
Data set [3] is described as follows: Solid-state stability of Form III (mechanical milling; storage at 60 °C sealed).

As for `CCCCCCOC(=O)NC(=N)c1ccc(CNC(=O)[C@@H]2CCCN2C(=O)[C@@H](CC(C)C)NCC(=O)OCC)cc1` [Form A of the monohydrochloride], in data set [1], the “Moisture adsorption content (wt%)” value is 0.5 wt% and the Hygroscopicity entry was “Slightly hygroscopic”. In addition, in data set [2], the “Stability at room temperature (10 days)” value is “White powder, crystalline form remains unchanged (10 days)”.
On to `CCCCCCOC(=O)NC(=N)c1ccc(CNC(=O)[C@@H]2CCCN2C(=O)[C@@H](CC(C)C)NCC(=O)OCC)cc1` [Form B of the monohydrochloride], for which, in data set [1], the “Moisture adsorption content (wt%)” value was 3.0 wt% and the Hygroscopicity result is on record as “Hygroscopic”. In addition, in data set [2], the “Stability at room temperature (10 days)” value is reported as “White powder, crystalline form remains unchanged (10 days)”.
For `CCCCCCOC(=O)NC(=N)c1ccc(CNC(=O)[C@@H]2CCCN2C(=O)[C@@H](CC(C)C)NCC(=O)OCC)cc1` [Form III], the “crystalline form after storage” value in data set [3] (60 °C/sealed condition for 7 days) is “converted to Form I”. Moreover, the purity came out at 89.35% in data set [3] (after storage at 60 °C/sealed condition for 7 days) and 95.81% in data set [3] (before storage at 60 °C/sealed condition). Besides, the “crystalline form after mechanical milling” value in data set [3] (mechanical milling for 2 minutes) was “converted to Form I”. Moreover, the results for the “water absorption (DVS)” value in data set [1] (80% RH) and in data set [1] (90% humidity) were 28.8% and 50.0%, respectively.
